{
  "source": "patent US7288573B2",
  "about": "“Method of repelling insects” (priority 2001, dated 2007)",
  "key": {"[1]": {"test_system": "Culex spp.", "experiment": "Mosquito repellency of 2-undecanone, treated arm in cage (Example 5)", "type": "in vivo", "conditions": "20% on arm; for No. landings: single replicates", "text": "Two mosquitoes cages were constructed using wood framing and fine mesh wire screen. The dimensions of each cage were 59 cm high×55 cm wide×59 cm deep. A hinged access door was installed at the front of each chamber for insertion of the water-filled containers filled with mosquito pupae. Also present at the front of each chamber was a 9 cm diameter plastic tube (i.d.) for insertion of the arm of the investigator. The arm insertion tube was sealed with a rubber stopper when not in use.\nMosquitoes (Culex spp.) were obtained (as pupae) from Carolina Biological Supply Co., Burlington, N.C., USA. Following their arrival, the mosquitoes were divided into approximately equal numbers in two water-filled containers and placed in the two cages described above. Some of the mosquitoes had hatched upon arrival.\nTesting was done with 2-undecanone for repellent activity by treating one arm of the investigator with approximately 1 ml of the test solution. Following several minutes for solvent evaporation, the treated arm was inserted through the insertion tube for 5 minutes. The other arm was treated with ethanol (control) or a different concentration of 2-undecanone, and inserted into the insertion tube of the adjacent chamber. Next, the behavior of the mosquitoes in response to the presence of the investigator's arms was noted. Mosquito behavior was recorded as 1) landing or attempting to land on the investigator's arm, versus 2) dispersal away from the treated arm towards the opposite ends of the cage. The approximate number of mosquitoes present at the beginning of the observations was noted. The observations were repeated (without re-treatment of the investigator's hand and arm) after 3 hours and again after 6 hours. Treatments were alternated between the different cages. Each observation was repeated 3 times. Tests were done with 20%, 5%, 2%, 0.5% 2-undecanone, 20% DEET, and the ethanol control.\nWith one exception, none of the mosquitoes succeeded in biting, although mosquitoes that landed on the investigator's arm were dislodged by flicking the arm or hand. In most cases, any physical movement of the hand or arm will induce the mosquito to leave. Thus, few if any bites were expected. Landings on the arm were considered as evidence of attraction, with intent to bite."}, "[2]": {"test_system": "Aedes aegypti", "experiment": "Mosquito repellency of 2-undecanone versus DEET and Citronella in mineral oil (Example 9)", "type": "in vivo", "conditions": "20% in mineral oil; for NP: single replicates", "text": "Cages. Two mosquitoes cages were used for this experiment. The cages were constructed using wood framing and fine mesh wire screen. The dimensions of each cage were 59 cm high×55 cm wide by 59 cm deep. A hinged access door was installed at the front of each chamber for insertion of the water-filled containers filled with mosquito larvae. Also present at the front of each chamber was a 9 cm (I.D.) diameter plastic tube for insertion of the arm of the investigator. The arm insertion tube was sealed with a rubber stopper when not in use.\nMosquitoes and Mosquito Rearing. Mosquitoes (Aedes aegypti) were obtained as eggs from Dr. Gary Benzon (Benzon Research, Inc., Carlisle, Pa. 17013, USA) and allowed to hatch at three successive intervals so as to provide a continuing long-term supply of fresh insects. Following their arrival, the egg rafts were divided into approximately equal numbers in multiple water-filled containers within the test chambers, which also served as emergence cages. Following hatching, the larval cultures were fed with insect rearing compound supplied by United States Department of Agriculture, Gainesville, Fla., USA, courtesy of a person The water in the breeding chambers was changed regularly at two or three day intervals by filtration to minimize contamination and prevent overcrowding. Mosquitoes were bred throughout the 3-week study period in order to maintain a continuing supply of fresh insects (see below) and build up the population, usually exceeding 100 insects per cage.\nTest Compounds and Testing Schedule. Testing was done with the mineral oil formulation of 2-undecanone for repellent activity by treating one arm of the investigator with approximately 1 ml of the test formulation. To avoid excessive bites and development of severe allergic reactions from multiple mosquito bites, treatments were applied to removable strips of cotton cloth taped to all parts of the investigator's hand and arm. Treatments were applied in a separate room, far from the mosquito cages. Following several minutes for the oil to soak in place, the cloth strips saturated with the treatment solution was attached to the investigator's wrist. Then, the treated arm was inserted through the insertion tube for 5 minutes. The other arm was treated with mineral oil (control) or a different compound and inserted into the insertion tube of the adjacent chamber. Next, the behavior of the mosquitoes in response to the presence of the investigator's arms was noted. Mosquito behavior was recorded as 1) landing or attempting to land on the investigator's hand or arm; 2) biting and sucking blood; or 3) dispersal away from the treated hand and arm towards the opposite ends of the cage. The approximate number of mosquitoes present in the cage at the beginning of each observation was noted. Treatments were alternated between the different cages. Each observation was repeated 3 times.\n2-undecanone, DEET and Citronella arrived as liquids mixed in mineral oil in sealed plastic vials. To prepare the compounds for testing, the stocks were shaken vigorously to thoroughly mix the compounds in the mineral oil carrier, the vials opened and 1 ml samples applied directly as described above.\nObservations. Mosquitoes were recorded as 1) repelled if they dispersed away from the treated hand/arm, changed course while in flight after approaching the treated hand/arm, touched the treated hand/arm and quickly withdrew; versus 2) not repelled if they landed on the treated hand/arm and remained on the cloth or skin of the investigator, or bit the investigator and sucked blood. The number of bites during the exposure period also was recorded.\n[…] Efficacy was calculated according to the formula: Efficacy=[(no.landings/no.present in control)−(no.landings/no. present in experimental) divided by (no.landings/no.present in control)]×100."}},
  "note": "Several values for one entry are separate records, joined by “and”; a condition that tells them apart may be missing. Identical values can stand only once.",
  "data": [
    {"smiles": "CCN(CC)C(=O)c1cccc(C)c1", "note": "[DEET, N,N-diethyl-meta-toluamide, reference compound]", "values": [
      {"measurement": "No. landings, Mean", "setting": "[1]; 0 hours after treatment", "result": 0},
      {"measurement": "No. landings", "setting": "[1]; 0 hours after treatment", "result": 0},
      {"measurement": "No. landings, Mean", "setting": "[1]; 3 hours after treatment", "result": 0},
      {"measurement": "No. landings", "setting": "[1]; 3 hours after treatment", "result": 0},
      {"measurement": "No. landings, Mean", "setting": "[1]; 6 hours after treatment", "result": 0.3},
      {"measurement": "No. landings", "setting": "[1]; 6 hours after treatment", "result": "1 and 0 (2×)"},
      {"measurement": "observed mosquito behavior / repellent effect (words)", "setting": "[1]; observed at 0, 3 and 6 hours", "result": "The effect persisted after 3 hours, but was largely lost after 6 hours"},
      {"measurement": "Percent Efficacy Post-Treatment", "setting": "[2]; 0 hours", "result": 96.0, "unit": "%"},
      {"measurement": "NP, Mean", "setting": "[2]; 0 hours after treatment", "result": 2.0},
      {"measurement": "Percent (percent of mosquitoes responding, landings on the treated hand/arm)", "setting": "[2]; 0 hours after treatment", "result": 2.3, "unit": "%"},
      {"measurement": "NP", "setting": "[2]; 0 hours after treatment", "result": "3 (2×) and 1 (2×)"},
      {"measurement": "Percent Efficacy Post-Treatment", "setting": "[2]; 3 hours", "result": 73.9, "unit": "%"},
      {"measurement": "NP, Mean", "setting": "[2]; 3 hours after treatment", "result": 18.7},
      {"measurement": "Percent (percent of mosquitoes responding, landings on the treated hand/arm)", "setting": "[2]; 3 hours after treatment", "result": 13.1, "unit": "%"},
      {"measurement": "NP", "setting": "[2]; 3 hours after treatment", "result": "22 and 11 and 23"},
      {"measurement": "Percent Efficacy Post-Treatment", "setting": "[2]; 6 hours", "result": 75.9, "unit": "%"},
      {"measurement": "NP, Mean", "setting": "[2]; 6 hours after treatment", "result": 21.7},
      {"measurement": "Percent (percent of mosquitoes responding, landings on the treated hand/arm)", "setting": "[2]; 6 hours after treatment", "result": 16.5, "unit": "%"},
      {"measurement": "NP", "setting": "[2]; 6 hours after treatment", "result": "31 and 21 and 13"},
      {"measurement": "Percent Efficacy Post-Treatment", "setting": "[2]; 9 hours", "result": 85.3, "unit": "%"},
      {"measurement": "number of bites recorded", "setting": "[2]; 9 hours (later intervals)", "result": 2},
      {"measurement": "NP, Mean", "setting": "[2]; 9 hours after treatment", "result": 7.3},
      {"measurement": "Percent (percent of mosquitoes responding, landings on the treated hand/arm)", "setting": "[2]; 9 hours after treatment", "result": 9.4, "unit": "%"},
      {"measurement": "NP", "setting": "[2]; 9 hours after treatment", "result": "11 and 7 and 4"},
      {"measurement": "Percent Efficacy Post-Treatment", "setting": "[2]; 12 hours", "result": 71.3, "unit": "%"},
      {"measurement": "number of bites recorded", "setting": "[2]; 12 hours", "result": 22},
      {"measurement": "NP, Mean", "setting": "[2]; 12 hours after treatment", "result": 28.7},
      {"measurement": "Percent (percent of mosquitoes responding, landings on the treated hand/arm)", "setting": "[2]; 12 hours after treatment", "result": 16.2, "unit": "%"},
      {"measurement": "NP", "setting": "[2]; 12 hours after treatment", "result": "16 and 37 and 33"},
      {"measurement": "observed repellent activity (words)", "setting": "[2]; observed 0 to 12 hours", "result": "strong repellent activity, similar to that observed for 2-undecanone"},
      {"measurement": "number of bites recorded", "setting": "[2]; zero hours", "result": "one"}
    ]}
  ]
}
